Data: patent US11964938B2, “3-phenyl-4-hexynoic acid derivatives as GPR40 agonists” (CELON PHARMA S.A., priority 2018, dated 2024)
Where a name gives a salt, the structure may show the parent alone.

Assays:
MRP2 = biological target: T1, MRP2 (Homo sapiens, UniProt Q92887); assay: Vesicular transport inhibition assay, MRP2; assay type: biochemical; settings: membrane vesicles from HEK293 cells
T1 construct: host or cells: HEK293 (membrane vesicles)
Protocol: (§1) Experiment B4: Bile Acid Transporters Inhibition in the Liver. […] The compound was tested on a panel of 10 transporters: BSEP, MRP2, MRP3, MRP4 in a vesicular transport inhibition assay and NTCP, OAT1, OAT2v1, OATP1A2, OATP1B1, OATP1B3 in an uptake transporter inhibition assays. Vesicular transport inhibition assay was performed on membrane vesicles isolated from mammal HEK293 cells overexpressing human ABC transporters. Tested compound were incubated with vesicles and substrates for respective tested transporters. Incubation was performed in the presence of 4 mM ATP or AMP in order to differentiate between uptake by a transporter and passive diffusion into vesicles. In the case of MRP2 and MRP3, reactions were performed in the presence of 2 mM glutathione. Tested compounds were added to the reaction mixture dissolved in 0.75 μl of a solvent (1% of final incubation volume). Reaction mixtures were preincubated for 15 minutes at 37±1° C. Reactions were started by the addition of 25 μl of 12 mM MgATP (or 12 mM AMP) in test buffer, as a background control, separately preincubated.

MRP3 = biological target: T2, MRP3 (Homo sapiens, UniProt O15438); assay: Vesicular transport inhibition assay, MRP3; assay type: biochemical; settings: membrane vesicles from HEK293 cells
T2 construct: host or cells: HEK293 (membrane vesicles)
T2 sequence (O15438 whole entry): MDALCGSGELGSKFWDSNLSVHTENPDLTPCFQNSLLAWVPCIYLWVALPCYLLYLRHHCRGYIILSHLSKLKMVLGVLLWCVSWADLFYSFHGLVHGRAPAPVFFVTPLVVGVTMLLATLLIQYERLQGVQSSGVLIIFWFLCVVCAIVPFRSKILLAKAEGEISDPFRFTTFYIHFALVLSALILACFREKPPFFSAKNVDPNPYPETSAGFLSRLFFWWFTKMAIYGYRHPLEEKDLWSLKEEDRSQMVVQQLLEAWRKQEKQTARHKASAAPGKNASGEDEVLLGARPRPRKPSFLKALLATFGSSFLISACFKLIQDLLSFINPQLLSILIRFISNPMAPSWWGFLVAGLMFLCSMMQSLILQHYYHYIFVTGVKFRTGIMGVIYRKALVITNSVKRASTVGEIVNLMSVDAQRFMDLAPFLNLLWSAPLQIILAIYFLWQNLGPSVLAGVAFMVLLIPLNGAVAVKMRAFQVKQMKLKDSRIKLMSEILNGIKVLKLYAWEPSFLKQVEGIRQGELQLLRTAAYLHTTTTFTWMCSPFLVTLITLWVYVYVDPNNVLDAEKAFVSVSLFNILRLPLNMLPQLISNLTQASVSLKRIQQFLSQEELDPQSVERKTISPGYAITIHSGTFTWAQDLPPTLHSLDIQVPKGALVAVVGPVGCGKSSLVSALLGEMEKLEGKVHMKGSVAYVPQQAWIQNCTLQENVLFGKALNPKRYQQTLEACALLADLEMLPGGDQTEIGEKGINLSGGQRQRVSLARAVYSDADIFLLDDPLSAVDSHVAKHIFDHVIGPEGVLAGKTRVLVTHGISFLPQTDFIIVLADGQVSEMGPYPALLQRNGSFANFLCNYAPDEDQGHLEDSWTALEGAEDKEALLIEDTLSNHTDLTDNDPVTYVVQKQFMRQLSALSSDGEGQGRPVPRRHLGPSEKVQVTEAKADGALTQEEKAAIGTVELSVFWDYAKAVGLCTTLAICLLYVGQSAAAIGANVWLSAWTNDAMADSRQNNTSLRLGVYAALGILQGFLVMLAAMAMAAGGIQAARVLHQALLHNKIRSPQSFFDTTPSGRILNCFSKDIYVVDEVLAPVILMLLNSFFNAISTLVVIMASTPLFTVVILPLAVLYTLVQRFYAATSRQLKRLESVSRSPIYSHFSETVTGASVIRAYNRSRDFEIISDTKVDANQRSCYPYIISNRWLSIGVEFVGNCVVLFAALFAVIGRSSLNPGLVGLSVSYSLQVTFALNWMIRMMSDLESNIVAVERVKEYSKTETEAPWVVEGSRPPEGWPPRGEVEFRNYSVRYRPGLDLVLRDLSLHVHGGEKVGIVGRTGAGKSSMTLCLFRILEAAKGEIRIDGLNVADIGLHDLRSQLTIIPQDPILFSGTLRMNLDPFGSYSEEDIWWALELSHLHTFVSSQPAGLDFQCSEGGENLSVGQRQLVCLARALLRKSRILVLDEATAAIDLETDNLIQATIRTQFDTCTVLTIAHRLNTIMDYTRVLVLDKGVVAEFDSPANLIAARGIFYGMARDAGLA
Protocol: as §1

BSEP = biological target: T3, BSEP (Homo sapiens, UniProt O95342); assay: Vesicular transport inhibition assay, BSEP; assay type: biochemical; settings: membrane vesicles from HEK293 cells
T3 construct: host or cells: HEK293 (membrane vesicles)
T3 sequence (O95342 whole entry): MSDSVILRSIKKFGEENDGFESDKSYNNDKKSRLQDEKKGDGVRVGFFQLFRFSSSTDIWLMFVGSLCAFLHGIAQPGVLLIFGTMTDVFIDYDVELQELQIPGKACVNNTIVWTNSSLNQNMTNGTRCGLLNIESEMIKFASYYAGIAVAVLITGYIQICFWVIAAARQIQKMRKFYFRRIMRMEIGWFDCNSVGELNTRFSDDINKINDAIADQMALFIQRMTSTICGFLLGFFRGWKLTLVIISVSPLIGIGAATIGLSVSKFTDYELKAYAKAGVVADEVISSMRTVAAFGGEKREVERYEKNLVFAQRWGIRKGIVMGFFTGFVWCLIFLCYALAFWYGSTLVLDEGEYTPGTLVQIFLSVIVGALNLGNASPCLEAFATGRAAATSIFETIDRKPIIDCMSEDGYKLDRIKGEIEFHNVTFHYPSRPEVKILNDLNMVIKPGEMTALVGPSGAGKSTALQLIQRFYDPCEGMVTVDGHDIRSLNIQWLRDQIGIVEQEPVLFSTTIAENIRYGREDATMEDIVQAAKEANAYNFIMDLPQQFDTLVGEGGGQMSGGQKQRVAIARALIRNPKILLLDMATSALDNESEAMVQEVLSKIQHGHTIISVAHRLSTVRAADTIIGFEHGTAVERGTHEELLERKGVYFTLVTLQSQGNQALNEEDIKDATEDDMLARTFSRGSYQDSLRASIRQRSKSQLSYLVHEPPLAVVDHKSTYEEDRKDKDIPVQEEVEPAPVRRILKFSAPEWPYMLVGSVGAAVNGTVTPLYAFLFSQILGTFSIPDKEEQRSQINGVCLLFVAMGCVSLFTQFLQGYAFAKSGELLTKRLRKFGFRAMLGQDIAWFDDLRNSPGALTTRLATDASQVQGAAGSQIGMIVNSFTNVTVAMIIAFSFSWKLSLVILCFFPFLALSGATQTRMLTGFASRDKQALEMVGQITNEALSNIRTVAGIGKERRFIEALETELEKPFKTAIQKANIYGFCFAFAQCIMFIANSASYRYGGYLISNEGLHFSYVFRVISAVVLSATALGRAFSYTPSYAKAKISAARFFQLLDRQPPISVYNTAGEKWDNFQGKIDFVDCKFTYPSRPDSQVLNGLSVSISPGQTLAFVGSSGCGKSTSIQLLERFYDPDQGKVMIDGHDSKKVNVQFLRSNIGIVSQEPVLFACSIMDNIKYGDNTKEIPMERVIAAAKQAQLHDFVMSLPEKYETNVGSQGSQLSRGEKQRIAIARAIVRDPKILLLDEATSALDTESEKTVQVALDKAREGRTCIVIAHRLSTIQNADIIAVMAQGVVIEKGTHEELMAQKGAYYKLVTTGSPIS
Protocol: as §1

OATP1A2 = biological target: T4, OATP1A2 (Homo sapiens, UniProt P46721); assay: Uptake transporter inhibition assay, OATP1A2; assay type: cell-based; settings: HEK293 cells overexpressing transporter
T4 construct: host or cells: HEK293
T4 sequence (P46721 1-670): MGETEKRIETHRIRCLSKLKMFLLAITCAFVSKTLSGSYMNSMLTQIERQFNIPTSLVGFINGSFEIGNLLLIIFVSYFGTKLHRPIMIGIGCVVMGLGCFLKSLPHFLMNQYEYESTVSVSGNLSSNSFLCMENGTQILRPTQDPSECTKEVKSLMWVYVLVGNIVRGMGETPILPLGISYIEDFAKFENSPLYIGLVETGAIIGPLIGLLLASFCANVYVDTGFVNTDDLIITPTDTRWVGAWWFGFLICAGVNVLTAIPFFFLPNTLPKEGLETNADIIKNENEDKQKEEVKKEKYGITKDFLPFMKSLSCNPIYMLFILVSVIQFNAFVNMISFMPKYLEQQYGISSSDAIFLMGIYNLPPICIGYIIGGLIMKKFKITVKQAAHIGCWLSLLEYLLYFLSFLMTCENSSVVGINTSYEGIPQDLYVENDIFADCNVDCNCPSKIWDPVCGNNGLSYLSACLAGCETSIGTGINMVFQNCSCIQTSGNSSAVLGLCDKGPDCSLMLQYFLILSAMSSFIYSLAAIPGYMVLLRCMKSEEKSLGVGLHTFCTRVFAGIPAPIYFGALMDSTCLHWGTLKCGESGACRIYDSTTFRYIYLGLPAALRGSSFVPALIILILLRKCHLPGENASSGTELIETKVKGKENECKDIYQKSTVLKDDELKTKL
Protocol: (§2) Experiment B4: Bile Acid Transporters Inhibition in the Liver.
(§3) The compound was tested on a panel of 10 transporters: BSEP, MRP2, MRP3, MRP4 in a vesicular transport inhibition assay and NTCP, OAT1, OAT2v1, OATP1A2, OATP1B1, OATP1B3 in an uptake transporter inhibition assays.
(§4) Transporter uptake inhibition test was performed on mammal HEK293 cells overexpressing of a respective transporter. Cells were cultured at 37±1° C. and seeded on 96-well tissue culture plate at 1×10^5/well. Substrate was removed prior to experiment and cells were washed twice with 100 μl of respective buffer (HK pH 7.4 for OATP1B1 and HBSS pH 7.4 for NTCP, OAT1, OAT2v1, OATP1A2, and OATP1B3). Uptake studies were performed at 37±1° C. in 50 μl of respective buffer containing radioactively tagged substrate and tested compound or solvent.
(§5) After experiment cells were washed twice with 100 μl of ice-cold respective buffer and lysed with 50 μl of 0.1M NaOH. Transport of radioactively tagged substrate was determined by scintillation counter measurement.

OATP1B3 = biological target: T5, OATP1B3 (Homo sapiens, UniProt Q9NPD5); assay: Uptake transporter inhibition assay, OATP1B3; assay type: cell-based; settings: HEK293 cells overexpressing transporter
T5 construct: host or cells: HEK293
T5 sequence (Q9NPD5 1-702): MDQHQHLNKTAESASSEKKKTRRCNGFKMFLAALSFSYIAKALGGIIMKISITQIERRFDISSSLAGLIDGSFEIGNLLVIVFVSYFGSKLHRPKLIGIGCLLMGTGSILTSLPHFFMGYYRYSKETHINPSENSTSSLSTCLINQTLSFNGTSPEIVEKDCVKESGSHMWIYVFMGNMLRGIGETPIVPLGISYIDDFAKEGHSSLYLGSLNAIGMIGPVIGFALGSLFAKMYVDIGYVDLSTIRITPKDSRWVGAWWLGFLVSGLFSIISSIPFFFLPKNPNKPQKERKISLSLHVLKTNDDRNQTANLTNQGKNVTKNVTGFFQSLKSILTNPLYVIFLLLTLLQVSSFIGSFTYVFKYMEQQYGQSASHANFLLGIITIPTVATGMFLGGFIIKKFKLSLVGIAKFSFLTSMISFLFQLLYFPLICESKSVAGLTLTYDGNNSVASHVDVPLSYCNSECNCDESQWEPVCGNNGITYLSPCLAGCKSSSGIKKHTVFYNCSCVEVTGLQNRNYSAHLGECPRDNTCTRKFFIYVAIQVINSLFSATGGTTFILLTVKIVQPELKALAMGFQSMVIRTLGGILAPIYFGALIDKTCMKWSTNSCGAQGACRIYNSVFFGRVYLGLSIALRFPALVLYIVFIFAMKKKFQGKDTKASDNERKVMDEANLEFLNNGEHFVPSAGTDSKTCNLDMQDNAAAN
Protocol: as §2, §3, §4, §5

T1 sequence (Q92887 whole entry): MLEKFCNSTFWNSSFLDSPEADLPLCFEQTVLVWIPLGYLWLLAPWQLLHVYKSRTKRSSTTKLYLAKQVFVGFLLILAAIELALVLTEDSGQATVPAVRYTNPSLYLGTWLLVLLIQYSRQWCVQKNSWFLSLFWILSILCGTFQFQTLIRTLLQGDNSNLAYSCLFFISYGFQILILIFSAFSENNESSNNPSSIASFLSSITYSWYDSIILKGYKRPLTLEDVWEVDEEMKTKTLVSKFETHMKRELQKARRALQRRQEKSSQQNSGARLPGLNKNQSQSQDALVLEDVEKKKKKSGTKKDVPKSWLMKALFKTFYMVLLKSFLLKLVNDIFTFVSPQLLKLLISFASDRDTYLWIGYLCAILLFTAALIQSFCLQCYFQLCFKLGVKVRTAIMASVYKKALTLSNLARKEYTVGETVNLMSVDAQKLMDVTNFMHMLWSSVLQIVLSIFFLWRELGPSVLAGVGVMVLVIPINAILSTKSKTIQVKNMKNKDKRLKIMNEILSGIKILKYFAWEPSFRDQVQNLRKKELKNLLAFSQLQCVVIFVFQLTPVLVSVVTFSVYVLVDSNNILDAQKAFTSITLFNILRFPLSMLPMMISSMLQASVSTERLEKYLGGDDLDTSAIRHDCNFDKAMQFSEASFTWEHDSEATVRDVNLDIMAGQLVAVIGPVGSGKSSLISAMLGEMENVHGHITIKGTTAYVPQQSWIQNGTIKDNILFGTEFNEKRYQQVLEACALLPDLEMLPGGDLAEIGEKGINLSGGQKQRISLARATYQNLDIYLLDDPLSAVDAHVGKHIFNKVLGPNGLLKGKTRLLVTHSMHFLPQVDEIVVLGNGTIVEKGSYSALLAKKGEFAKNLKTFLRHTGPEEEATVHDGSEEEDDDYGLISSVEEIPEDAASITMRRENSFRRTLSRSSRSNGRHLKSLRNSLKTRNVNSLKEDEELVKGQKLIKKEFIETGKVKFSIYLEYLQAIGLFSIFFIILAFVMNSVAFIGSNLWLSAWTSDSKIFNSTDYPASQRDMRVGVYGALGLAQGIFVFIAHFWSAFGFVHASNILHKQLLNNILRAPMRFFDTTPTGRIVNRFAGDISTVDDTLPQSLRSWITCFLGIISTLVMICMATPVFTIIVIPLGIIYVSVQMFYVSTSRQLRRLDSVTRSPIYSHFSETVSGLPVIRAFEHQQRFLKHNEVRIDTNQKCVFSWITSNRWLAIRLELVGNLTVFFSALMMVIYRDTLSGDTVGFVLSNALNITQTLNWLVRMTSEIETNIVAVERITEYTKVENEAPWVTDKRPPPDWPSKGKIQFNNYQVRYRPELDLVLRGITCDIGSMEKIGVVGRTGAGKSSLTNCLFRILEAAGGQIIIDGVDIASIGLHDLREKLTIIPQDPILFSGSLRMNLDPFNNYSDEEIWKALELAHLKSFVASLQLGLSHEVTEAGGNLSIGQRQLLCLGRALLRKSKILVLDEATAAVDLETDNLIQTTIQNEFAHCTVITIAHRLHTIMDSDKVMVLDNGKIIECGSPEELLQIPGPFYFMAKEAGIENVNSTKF

| Compound | IC50 (MRP2; 2 mM glutathione) [µM] | IC50 (MRP3; 2 mM glutathione) [µM] | IC50 (BSEP) [µM] | IC50 (OATP1A2) [µM] | IC50 (OATP1B3) [µM] | IC50 (MRP2; symbol per footnote) [µM] | IC50 (MRP3; symbol per footnote) [µM] |
| --- | --- | --- | --- | --- | --- | --- | --- |
| Cc1cc(OCCCS(C)(=O)=O)cc(C)c1-c1cccc(COc2ccc3c(c2)OC[C@H]3CC(=O)O)c1 [Example R1, 2[(3S)-6-({3-[4-(3-methanesulfonylpropoxy)-2,6-dimethylphenyl]-phenyl}methoxy)-2,3-dihydro-1-benzofuran-3-yl]acetic acid, reference compound] | 48.1 | 31.8 | 30 | 10.6 | 3.44 |  |  |
| CC#C[C@@H](CC(=O)O)c1ccc(OCC(C)=C(C)C)cc1 [Example S1, (3S)-3-{4-[(2,3-dimethylbut-2-en-1-yl)oxy]phenyl}hex-4-ynoic acid calcium salt] |  |  | > 100 | 118 | 42.9 | > 100 | > 100 |
